Patent US20060089499A1, “Pyrazolopyrimidines and the use thereof for controlling harmful organisms” (priority 2002, published 2006)

system: Venturia inaequalis; test: Venturia test (apple)/protective; assay type: in vivo; details: topical, 240 h, protective, application rate 100 g/ha, evaluation 10 days after inoculation, read-out: Efficacy in %
Procedure: Venturia Test (Apple)/Protective [table] To produce a suitable preparation of active compound, 1 part by weight of active compound is mixed with the stated amounts of solvent and emulsifier, and the concentrate is diluted with water to the desired concentration. To test for protective activity, young plants are sprayed with the preparation of active compound at the stated application rate. After the spray coating has dried on, the plants are inoculated with an aqueous conidia suspension of the apple scab pathogen Venturia inaequalis and then remain in an incubation cabin at about 20° C. and 100% relative atmospheric humidity for 1 day. The plants are then placed in a greenhouse at about 21° C. and a relative atmospheric humidity of about 90%.

SMILES	pest or weed control at 100 g/ha [%]
CC1CCN(c2c(-c3c(F)cccc3Cl)c(Cl)nc3c(C#N)cnn23)CC1 [drawing 92]	97
N#Cc1cnn2c(NCC3CC3)c(-c3c(F)cccc3Cl)c(Cl)nc12 [drawing 93]	100
C=C(C)CN(CC)c1c(-c2c(F)cc(F)cc2F)c(Cl)nc2c(C#N)cnn12 [drawing 94]	100
C[C@H](Nc1c(-c2c(F)cc(F)cc2F)c(Cl)nc2c(C#N)cnn12)C(F)(F)F [drawing 95]	100
C[C@H](Nc1c(-c2c(F)cc(F)cc2F)c(Cl)nc2c(Cl)cnn12)C(F)(F)F [drawing 96]	98
Fc1cc(F)c(-c2c(Cl)nc3c(Cl)cnn3c2N2CCC(F)(F)CC2)c(F)c1 [drawing 97]	100
CC(C)[C@@H](C)Nc1c(-c2c(F)cc(F)cc2F)c(Cl)nc2c(C#N)cnn12 [drawing 98]	100
CCC(C)Nc1c(-c2c(F)cc(F)cc2F)c(Cl)nc2c(C#N)cnn12 (stereo not drawn) [drawing 99]	100
CC(C)Nc1c(-c2c(F)cc(F)cc2F)c(Cl)nc2c(C#N)cnn12 [drawing 100]	98
CC(C)CN(C)c1c(-c2c(F)cc(F)cc2F)c(Cl)nc2c(C#N)cnn12 [drawing 101]	100
C=C(C)CN(C)c1c(-c2c(F)cc(F)cc2F)c(Cl)nc2c(C#N)cnn12 [drawing 102]	100

system: Botrytis cinerea; test: Botrytis test (bean)/protective; assay type: in vivo; details: topical, 48 h, protective, application rate 500 g/ha, evaluation 2 days after inoculation, read-out: Efficacy in %
Procedure: Botrytis Test (Bean)/Protective
To produce a suitable preparation of active compound, 1 part by weight of active compound is mixed with the stated amounts of solvent and emulsifier, and the concentrate is diluted with water to the desired concentration. To test for protective activity, young plants are sprayed with the preparation of active compound at the stated application rate. After the spray coating has dried on, 2 small pieces of agar colonized by Botrytis cinerea are placed onto each leaf. The inoculated plants are placed in a dark chamber at about 20° C. and 100% relative atmospheric humidity.
2 days after the inoculation, the size of the infected areas on the leaves is evaluated. 0% means an efficacy which corresponds to that of the control, whereas an efficacy of 100% means that no infection is observed.

SMILES	pest or weed control at 500 g/ha [%]
N#Cc1cnn2c(N3CCCCC3)c(-c3c(F)cccc3Cl)c(Cl)nc12 [drawing 111]	93
CC1CCN(c2c(-c3c(F)cccc3Cl)c(Cl)nc3c(C#N)cnn23)CC1 [drawing 112]	96
N#Cc1cnn2c(NCC3CC3)c(-c3c(F)cccc3Cl)c(Cl)nc12 [drawing 113]	99
C=C(C)CN(CC)c1c(-c2c(F)cc(F)cc2F)c(Cl)nc2c(C#N)cnn12 [drawing 114]	100
C[C@H](Nc1c(-c2c(F)cc(F)cc2F)c(Cl)nc2c(C#N)cnn12)C(F)(F)F [drawing 115]	99
C[C@H](Nc1c(-c2c(F)cc(F)cc2F)c(Cl)nc2c(Cl)cnn12)C(F)(F)F [drawing 116]	100
Fc1cc(F)c(-c2c(Cl)nc3c(Cl)cnn3c2N2CCC(F)(F)CC2)c(F)c1 [drawing 117]	95
CC(C)[C@@H](C)Nc1c(-c2c(F)cc(F)cc2F)c(Cl)nc2c(C#N)cnn12 [drawing 118]	96
CCC(C)Nc1c(-c2c(F)cc(F)cc2F)c(Cl)nc2c(C#N)cnn12 (stereo not drawn) [drawing 119]	97
CC(C)Nc1c(-c2c(F)cc(F)cc2F)c(Cl)nc2c(C#N)cnn12 [drawing 120]	93
CC(C)CN(C)c1c(-c2c(F)cc(F)cc2F)c(Cl)nc2c(C#N)cnn12 [drawing 121]	100
C=C(C)CN(C)c1c(-c2c(F)cc(F)cc2F)c(Cl)nc2c(C#N)cnn12 [drawing 122]	100
CC(Nc1c(-c2ccc(F)cc2Cl)c(Cl)nc2c(C#N)cnn12)C(F)(F)F (stereo not drawn) [drawing 123]	99
C[C@H](Nc1c(-c2ccc(F)cc2Cl)c(Cl)nc2c(C#N)cnn12)C(F)(F)F [drawing 124]	100
CC(C)CN(C)c1c(-c2ccccc2Cl)c(Cl)nc2c(C#N)cnn12 [drawing 125]	100
CC1CCN(c2c(-c3ccccc3Cl)c(Cl)nc3c(C#N)cnn23)CC1 [drawing 126]	95
N#Cc1cnn2c(N3CCC(F)CC3)c(-c3c(F)cccc3Cl)c(Cl)nc12 [drawing 127]	94
CC(C)CN(C)c1c(-c2c(F)cccc2Cl)c(Cl)nc2c(C#N)cnn12 [drawing 128]	99
C=C(C)CN(CC)c1c(-c2c(F)cccc2Cl)c(Cl)nc2c(C#N)cnn12 [drawing 129]	100
C[C@H](Nc1c(-c2c(F)cccc2Cl)c(Cl)nc2c(C#N)cnn12)C(F)(F)F [drawing 130]	100

system: not listed separately; test: physchem; details: log P

chromatographic logP	SMILES
3.88	C[C@H](Nc1c(-c2ccc(F)cc2Cl)c(Cl)nc2c(C#N)cnn12)C(F)(F)F (single isomer, unassigned) [Example 1]
3.78	CC(C)C(C)Nc1c(-c2c(F)cccc2Cl)cnc2c(C#N)cnn12 (stereo not drawn) [Example 4, 6-(2-chloro-6-fluorophenyl)-7-[(1,2-dimethylpropyl)amino)pyrazolo[1,5-a]pyrimidine-3-carbonitrile]
4.53	CC(C)C(C)Nc1c(-c2ccc(F)cc2Cl)cnc2c(Cl)cnn12 (stereo not drawn) [Example 5, N-[3-chloro-6-(2-chloro-4-fluorophenyl)pyrazolo[1,5-a]pyrimidin-7-yl]-N-(1,2-dimethylpropyl)amine]
4.43	CC(Nc1c(-c2ccc(F)cc2Cl)c(Cl)nc2c(C=O)cnn12)C(C)(C)C (stereo not drawn) [Example 401, 3-formyl-5-chloro-6-(2-chloro-4-fluorophenyl)-7-(1,2,2-trimethylpropylamino)pyrazolo[1,5a]pyrimidine]
5.48	CO/N=C\c1cnn2c(NC(C)C(C)(C)C)c(-c3ccc(F)cc3Cl)c(Cl)nc12 (stereo not drawn) [Example 402, 3-methoximino-5-chloro-6-(2-chloro-4-fluorophenyl)-7-(1,2,2-trimethylpropylamino)pyrazolo[1,5a]pyrimidine]
3.48	N#Cc1cnn2c(Cl)c(-c3ccc(F)cc3Cl)c(Cl)nc12 [Example 441, 3-cyano-5,7-dichloro-6-(2-chloro-4-fluorophenyl)pyrazolo[1,5-a]pyrimidine]
3.97	Fc1cc(F)c(-c2c(Cl)nc3c(Cl)cnn3c2Cl)c(F)c1 [Example 442, 3,5,7-trichloro-6-(2,4,6-trifluorophenyl)pyrazolo[1,5-a]pyrimidine]
3.56	Fc1ccc(-c2cnc3c(Cl)cnn3c2Cl)c(Cl)c1 [Example 443, 3,7-dichloro-6-(2-chloro-4-fluorophenyl)pyrazolo[1,5-a]pyrimidine]

SMILES	chromatographic logP
C[C@H](Nc1c(-c2c(F)cc(F)cc2F)c(Cl)nc2c(Cl)cnn12)C(F)(F)F [Example 3, N-[3,5-dichloro-6-(2,4,6-trifluorophenyl)pyrazolo[1,5-a]pyrimidin-7-yl]-N-[(1S)-2,2,2-trifluoro-1-methylethyl]amine]	4.43

same assay, conditions: logP

chromatographic logP	SMILES
4.43	CC(Nc1c(-c2ccc(F)cc2Cl)c(Cl)nc2c(C=O)cnn12)C(C)(C)C (stereo not drawn) [Example 401, 3-formyl-5-chloro-6-(2-chloro-4-fluorophenyl)-7-(1,2,2-trimethylpropylamino)pyrazolo[1,5a]pyrimidine]
5.48	CO/N=C\c1cnn2c(NC(C)C(C)(C)C)c(-c3ccc(F)cc3Cl)c(Cl)nc12 (stereo not drawn) [Example 402, 3-methoximino-5-chloro-6-(2-chloro-4-fluorophenyl)-7-(1,2,2-trimethylpropylamino)pyrazolo[1,5a]pyrimidine]
4.6	C=C(C)CN(CC)c1c(-c2c(F)cc(F)cc2F)c(Cl)nc2c(C#N)cnn12 [compound 6]
3.73	C[C@H](Nc1c(-c2c(F)cccc2Cl)c(Cl)nc2c(C#N)cnn12)C(F)(F)F [compound 12]
4.68	C=C(C)CN(CC)c1c(-c2c(F)cccc2Cl)c(Cl)nc2c(C#N)cnn12 [compound 13]
3.26	N#Cc1cnn2c(N3CCOCC3)c(-c3c(F)cccc3Cl)c(Cl)nc12 [compound 14]
4.32	N#Cc1cnn2c(N3CCCCC3)c(-c3c(F)cccc3Cl)c(Cl)nc12 [compound 21]
4.77	CC1CCN(c2c(-c3c(F)cccc3Cl)c(Cl)nc3c(C#N)cnn23)CC1 [compound 28]
3.74	N#Cc1cnn2c(NCC3CC3)c(-c3c(F)cccc3Cl)c(Cl)nc12 [compound 29]
3.82	N#Cc1cnn2c(N3CCC(F)CC3)c(-c3c(F)cccc3Cl)c(Cl)nc12 [compound 34]
4.51	CC(C)CN(C)c1c(-c2c(F)cccc2Cl)c(Cl)nc2c(C#N)cnn12 [compound 46]
3.89	CCC(C)Nc1c(-c2c(F)cc(F)cc2F)c(Cl)nc2c(C#N)cnn12 (stereo not drawn) [compound 50]
3.54	CC(C)Nc1c(-c2c(F)cc(F)cc2F)c(Cl)nc2c(C#N)cnn12 [compound 52]
4.78	CC1CCN(c2c(-c3ccccc3Cl)c(Cl)nc3c(C#N)cnn23)CC1 [compound 95]
4.37	CC(C)CN(C)c1c(-c2c(F)cc(F)cc2F)c(Cl)nc2c(C#N)cnn12 [compound 108]
4.24	C=C(C)CN(C)c1c(-c2c(F)cc(F)cc2F)c(Cl)nc2c(C#N)cnn12 [compound 110]
4.51	CC(C)CN(C)c1c(-c2ccccc2Cl)c(Cl)nc2c(C#N)cnn12 [compound 138]
3.87	CC(C)CNc1c(-c2ccc(F)cc2F)c(Cl)nc2c(C#N)cnn12 [compound 148]
3.81	N#Cc1cnn2c(N3CCC(F)(F)CC3)c(-c3c(F)cc(F)cc3F)c(Cl)nc12 [compound 230]
4.61	Fc1cc(F)c(-c2c(Cl)nc3c(Cl)cnn3c2N2CCC(F)(F)CC2)c(F)c1 [compound 231]

SMILES	chromatographic logP
C[C@H](Nc1c(-c2c(F)cc(F)cc2F)c(Cl)nc2c(C#N)cnn12)C(F)(F)F [compound 7]	3.69
N#Cc1cnn2c(NCC3CC3)c(-c3c(F)cc(F)cc3F)c(Cl)nc12 [compound 54]	3.63
C[C@H](Nc1c(-c2ccccc2F)c(Cl)nc2c(C#N)cnn12)C(F)(F)F [compound 74]	3.49
